The record followed here is patent US8497278B2, “Imidazo[1,2-a]pyridine compounds” (priority 2008, dated 2013).

SMILES strings stand for the structures.

In one assay the test system is Wistar rats. The assay is described as follows: Vogel conflict test. The following applies: rat, 60 min before test, 3 minute test. It is filed as in vivo. The method, then: Vogel Conflict Test Protocol: The Vogel conflict test is an animal model of anxiety described by Vogel et al. (1971). In this test, water deprived animals are placed in a cage with free access to a drinking bottle. Whenever the animal drinks, an electric shock is administered. Animals punished during drinking rapidly cease to drink. Anxiolytic drugs decrease the effect of punishment and increase the number of shocks accepted by the rats in this conflict situation. Male Wistar rats were used in these studies. Rats were deprived of water for approximately 48 hours and then placed individually into a transparent Plexiglas enclosure with a floor consisting of stainless steel bars spaced 1 cm apart. The back wall of the enclosure was made of opaque Plexiglas thereby concealing the observer from the experimental animal. In the center of the opposite wall, 5 cm above the floor, a metal water spout protruded into the cage and was connected to one pole of a shock generator. The other pole of the shock generator was connected to the metal grid floor. The rat is left to explore until it finds the water spout. Then, every time it drinks, it receives an electric shock (1.7 mA, 1 sec duration) 2 seconds after it starts drinking The number of punished drinks is counted during a 3 minute test. Ten rats are studied per treatment group. Clobazam (64 mg/kg) was used as the positive control. Compounds of the present invention, vehicle (45% hydroxypropyl beta-cyclodextrin) and clobazam were administered orally to all groups (n=10 […] per group) 60 minutes prior to behavioral testing. All data were analyzed using unpaired Student's t-tests. An effect was considered significance if p<0.05.

For assay [1], the target named is T1, α2 subtype containing GABA-A receptors (Homo sapiens, UniProt P18507+P47869).
T1 construct: expressed in transfected cells; host or cells: Xenopus laevis oocytes, cRNA injected
The assay is described as follows: Two-electrode voltage clamp electrophysiology in Xenopus oocytes, potentiation of GABA EC20 response, α2. The assay is classed as cell-based. The following applies: 100 nM compound, read-out: Percentage of potentiation alpha2. The procedure, abridged: (§1)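 Human α1/α2/α3/α5 with β3 and γ2L subunits expressed in Xenopus oocytes from injected cRNA, clamped at −80 mV in ND96 (pH 7.5). After baseline responses to GABA at EC20 (60 μM), 1 μM chlordiazepoxide served as potentiation standard, then test compound at 100 nM; one compound per oocyte.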
In general terms: Two-electrode voltage clamp holds a large cell at a set potential and records current.

Assay [2] deals with T2, α1 subtype containing GABA-A receptors (Homo sapiens, UniProt P14867+P18507).
T2 construct: expressed in transfected cells; host or cells: Xenopus laevis oocytes, cRNA injected
The assay is described as follows: Two-electrode voltage clamp electrophysiology in Xenopus oocytes, potentiation of GABA EC20 response, α1. The assay is classed as cell-based. The following applies: 100 nM compound, read-out: Percentage of potentiation alpha1. The method in brief:
as §1

In assay [3] the test system is central benzodiazepine receptors. The assay is described as follows: Central benzodiazepine receptor binding (test of Speth et al.). The following applies: 1000 nM of the compound. The method in brief:
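Radioligand binding by the Speth et al. method. Specific binding is total minus nonspecific binding, the latter measured with excess unlabelled ligand. Compounds screened at 1.0E-09, 1.0E-07 and 1.0E-05 M in single determination; values given as percent inhibition at 1000 nM compound.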

In assay [4] the target is T3, α3 subtype containing GABA-A receptors (Homo sapiens, UniProt P18507+P34903).
T3 construct: expressed in transfected cells; host or cells: Xenopus laevis oocytes, cRNA injected
The assay is described as follows: Two-electrode voltage clamp electrophysiology in Xenopus oocytes, potentiation of GABA EC20 response, α3. The assay is classed as cell-based. The following applies: 100 nM compound, read-out: Percentage of potentiation alpha3. The method, then: (§2) Electrophysiology protocol: Oocytes were prepared from adult female Xenopus laevis frogs. cRNA encoding human α1, α2, α3, α5, β3 and γ2L GABAA receptor subunits was injected into the cytoplasm of stage 5 or 6 oocytes using the Robocyte Robot (Multi Channel Systems, Reutlingen, Germany). Two-electrode voltage clamp recordings were made in 96-well plates using the Robocyte Robot. Oocytes were impaled using recording heads with two glass electrodes containing 1.5 M potassium acetate and 0.5 M KCl and held at a membrane potential of −80 mV. Oocytes were continually perfused with a ND96 solution (96 mM NaCl, 2 mM KCl, 0.1 mM CaCl2, and 5 mM HEPES, pH 7.5) using a Gilson 222 XL Liquid Handler and Gilson Minipuls 3 Peristaltic Pump (Gilson Medical Electronics, Middleton, Wis., USA). The protocol consisted of three 20-s applications of GABA that gave a 20% of the maximum response (EC20: 60 μM) to allow for headroom to determine a baseline GABA response. To assess the potentiation, oocytes were first exposed to a single 1 μM chlordiazepoxide (CDP) as a potentiation standard. Oocytes with insufficient expression levels (currents below threshold) or insufficient γ2L subunit incorporation (judged by rapid desensitization upon GABA application, or by insufficient potentiation by CDP) were not included in analysis. Following this control application, a given oocyte was exposed to test compounds at 100 nM concentrations. Only one concentration of one compound was tested per oocyte. […] One skilled in the art will recognize that subtypes contribute to the effects of GABA-A modulators. Such that compounds favoring different subtypes can have different therapeutic effects. The magnitude of modulation, for example, partial modulators can influence the effects in vivo. “++” indicates a greater modulation that “+” so that at any given subtype “++” inducates a greater amount of modulation for that subtype. In some embodiments, modulation favoring alpha 1 relative to alpha2 and/or alpha 3 can have sedative hypnotic effects. In other embodiments, compounds with reduced selectivity of alpha 1 can express anxiolytic effects with less sedation. Compounds with selectivity for alpha 5 can have memory/cognition enhancing effects.

Assay [5] concerns the target T4, α5 subtype containing GABA-A receptors (Homo sapiens, UniProt P18507+P31644).
T4 construct: expressed in transfected cells; host or cells: Xenopus laevis oocytes, cRNA injected
The assay is described as follows: Two-electrode voltage clamp electrophysiology in Xenopus oocytes, potentiation of GABA EC20 response, α5. The assay is classed as cell-based. The following applies: 100 nM compound, read-out: Percentage of potentiation alpha5. The method, then:
as §2

T4 sequence (P31644 32-462): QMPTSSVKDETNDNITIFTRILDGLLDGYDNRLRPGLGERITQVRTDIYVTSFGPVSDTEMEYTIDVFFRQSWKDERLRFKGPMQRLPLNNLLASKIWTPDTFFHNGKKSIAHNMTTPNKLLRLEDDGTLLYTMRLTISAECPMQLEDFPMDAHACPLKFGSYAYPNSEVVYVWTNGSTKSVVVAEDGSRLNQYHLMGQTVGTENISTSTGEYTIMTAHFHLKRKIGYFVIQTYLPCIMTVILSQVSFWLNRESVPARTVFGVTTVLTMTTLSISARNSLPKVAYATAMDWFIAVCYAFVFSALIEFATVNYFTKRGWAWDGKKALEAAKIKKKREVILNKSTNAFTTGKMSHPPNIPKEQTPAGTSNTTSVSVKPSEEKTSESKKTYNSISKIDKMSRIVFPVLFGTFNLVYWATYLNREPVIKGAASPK
T4 sequence (P28472 26-473 partner): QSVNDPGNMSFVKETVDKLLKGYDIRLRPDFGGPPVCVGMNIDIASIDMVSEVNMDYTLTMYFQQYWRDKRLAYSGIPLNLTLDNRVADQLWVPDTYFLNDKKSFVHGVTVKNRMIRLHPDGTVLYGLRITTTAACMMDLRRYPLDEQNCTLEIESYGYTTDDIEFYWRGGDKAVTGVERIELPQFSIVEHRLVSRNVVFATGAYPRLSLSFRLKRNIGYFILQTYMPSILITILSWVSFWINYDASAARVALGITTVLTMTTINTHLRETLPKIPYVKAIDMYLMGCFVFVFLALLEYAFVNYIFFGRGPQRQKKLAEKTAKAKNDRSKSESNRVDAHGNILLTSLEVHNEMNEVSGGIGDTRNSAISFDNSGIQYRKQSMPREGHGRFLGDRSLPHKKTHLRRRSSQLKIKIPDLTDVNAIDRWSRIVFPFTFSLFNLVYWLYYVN
T4 sequence (P18507 40-475): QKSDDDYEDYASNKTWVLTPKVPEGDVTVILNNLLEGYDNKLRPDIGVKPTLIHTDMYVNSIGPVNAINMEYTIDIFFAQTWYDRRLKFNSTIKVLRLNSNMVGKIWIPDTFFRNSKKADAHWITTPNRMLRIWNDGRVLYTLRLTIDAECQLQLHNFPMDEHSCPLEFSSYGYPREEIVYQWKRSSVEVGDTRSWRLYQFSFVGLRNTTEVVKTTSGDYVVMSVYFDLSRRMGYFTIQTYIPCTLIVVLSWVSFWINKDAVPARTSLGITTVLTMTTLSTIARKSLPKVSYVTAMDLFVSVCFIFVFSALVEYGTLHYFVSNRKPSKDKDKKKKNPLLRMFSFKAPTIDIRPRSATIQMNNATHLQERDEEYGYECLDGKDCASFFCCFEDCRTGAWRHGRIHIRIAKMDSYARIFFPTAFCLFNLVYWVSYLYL
T1 sequence (P47869 29-451): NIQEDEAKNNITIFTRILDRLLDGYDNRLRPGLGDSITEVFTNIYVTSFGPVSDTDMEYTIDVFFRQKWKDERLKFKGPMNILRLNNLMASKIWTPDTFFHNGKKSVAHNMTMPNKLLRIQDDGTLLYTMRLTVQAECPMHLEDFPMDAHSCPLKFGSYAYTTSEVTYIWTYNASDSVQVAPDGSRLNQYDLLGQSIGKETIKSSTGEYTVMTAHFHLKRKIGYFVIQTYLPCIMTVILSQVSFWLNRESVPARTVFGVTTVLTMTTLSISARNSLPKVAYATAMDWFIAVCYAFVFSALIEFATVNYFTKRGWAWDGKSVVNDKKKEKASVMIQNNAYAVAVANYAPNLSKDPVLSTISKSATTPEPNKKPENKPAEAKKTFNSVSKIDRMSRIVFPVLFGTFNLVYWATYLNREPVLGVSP
T1 sequence (P28472 26-473 partner): as the sequence (P28472 26-473 partner) above
T1 sequence (P18507 40-475): as the sequence (P18507 40-475) above
T2 sequence (P14867 28-456): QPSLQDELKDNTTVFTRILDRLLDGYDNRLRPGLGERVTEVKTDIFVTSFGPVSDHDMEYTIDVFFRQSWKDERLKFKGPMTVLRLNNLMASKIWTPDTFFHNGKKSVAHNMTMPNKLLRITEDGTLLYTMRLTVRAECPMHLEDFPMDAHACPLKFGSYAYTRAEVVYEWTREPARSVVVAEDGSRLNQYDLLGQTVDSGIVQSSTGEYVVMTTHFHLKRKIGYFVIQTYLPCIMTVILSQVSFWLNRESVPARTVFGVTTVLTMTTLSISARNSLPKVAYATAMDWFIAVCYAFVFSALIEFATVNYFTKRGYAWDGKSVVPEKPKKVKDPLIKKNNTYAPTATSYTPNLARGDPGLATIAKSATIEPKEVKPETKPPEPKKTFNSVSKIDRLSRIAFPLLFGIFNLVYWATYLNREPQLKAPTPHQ
T2 sequence (P28472 26-473 partner): as the sequence (P28472 26-473 partner) above
T2 sequence (P18507 40-475): as the sequence (P18507 40-475) above
T3 sequence (P34903 29-492): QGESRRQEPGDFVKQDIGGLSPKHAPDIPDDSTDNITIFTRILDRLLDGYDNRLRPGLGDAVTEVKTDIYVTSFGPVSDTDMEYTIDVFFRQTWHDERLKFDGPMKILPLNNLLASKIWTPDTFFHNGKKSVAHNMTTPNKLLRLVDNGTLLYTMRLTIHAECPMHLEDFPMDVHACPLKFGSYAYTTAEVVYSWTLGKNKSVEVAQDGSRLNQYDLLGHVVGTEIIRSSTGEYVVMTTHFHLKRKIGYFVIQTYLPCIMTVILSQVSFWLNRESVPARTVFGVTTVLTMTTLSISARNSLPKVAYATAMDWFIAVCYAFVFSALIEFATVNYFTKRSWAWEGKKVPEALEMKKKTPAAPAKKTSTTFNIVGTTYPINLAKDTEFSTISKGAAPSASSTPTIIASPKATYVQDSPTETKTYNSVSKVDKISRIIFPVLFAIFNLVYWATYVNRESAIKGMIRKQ
T3 sequence (P28472 26-473 partner): as the sequence (P28472 26-473 partner) above
T3 sequence (P18507 40-475): as the sequence (P18507 40-475) above

Take `Clc1ccc(-c2nc3ccccn3c2Cn2ccnn2)cc1` [Compound 40, 2-(4-Chloro-phenyl)-3-[1,2,3]triazol-1-ylmethyl-imidazo[1,2-a]pyridine]: the “Number of Shocks Mean ± S.E.M.” value turned out to be 2.4 ± 0.4 in the assay with Wistar rats (1 mg/kg PO), 3.4 ± 0.7 in the assay on Wistar rats (3 mg/kg PO) and 4.4 ± 0.7 with Wistar rats (10 mg/kg PO). Moreover, the activation at 0.1 µM is 10 to 50% in assay [1] and -10 to 10% in assay [2]. Also, in assay [3], the “% Inhibition at 1000 nM for CBZD” value is given as “++ (percentage of inhibition of central BZD site binding is greater than 80% in the presence of 1000 nM of the compound)”.
`Cc1cc(Cl)nc(NCc2c(-c3ccc(Cl)cc3)nc3ccc(Cl)cn23)n1` [Compound 170, 4-chloro-N-((6-chloro-2-(4-chlorophenyl)imidazo[1,2-a]pyridin-3-yl)methyl)-6-methylpyrimidin-2-amine]: the “Number of Shocks Mean ± S.E.M.” value with Wistar rats (0.3 mg/kg PO) is on record as 5.1 ± 0.9; in the assay on Wistar rats (1 mg/kg PO) it was 5.6 ± 0.9; in the assay on Wistar rats (3 mg/kg PO) it was 6.5 ± 1.0. Moreover, the activation at 0.1 µM was 10 to 50% in assay [1], 10 to 50% in assay [2], 10 to 50% in assay [4] and -10 to 10% in assay [5]. Further, the “% Inhibition at 1000 nM for CBZD” value in assay [3] is “++ (percentage of inhibition of central BZD site binding is greater than 80% in the presence of 1000 nM of the compound)”.
Take `Cc1nnc(Cc2c(-c3ccccc3)nc3ccc(Cl)cn23)o1` [Compound 205, 2-((6-chloro-2-phenylimidazo[1,2-a]pyridin-3-yl)methyl)-5-methyl-1,3,4-oxadiazole]: the activation at 0.1 µM in assay [1], in assay [2], in assay [4] and in assay [5] was -10 to 10% in each case. In addition, the “% Inhibition at 1000 nM for CBZD” value in assay [3] is on record as “++ (percentage of inhibition of central BZD site binding is greater than 80% in the presence of 1000 nM of the compound)”.
`Clc1ccc(-c2nc3ccccn3c2Cc2nnc(-c3ccccn3)[nH]2)cc1` [Compound 230, 2-(4-chlorophenyl)-3-((5-(pyridin-2-yl)-4H-1,2,4-triazol-3-yl)methyl)imidazo[1,2-a]pyridine]: the activation at 0.1 µM in assay [1], in assay [2], in assay [4] and in assay [5] was 10 to 50% throughout. Further, the “% Inhibition at 1000 nM for CBZD” value in assay [3] is given as “++ (percentage of inhibition of central BZD site binding is greater than 80% in the presence of 1000 nM of the compound)”.
Consider `O=C1C=C(N2CCC(O)C2)CN1Cc1c(-c2ccc(Cl)cc2)nc2ccccn12` (centres unmarked) [Compound 240, 1-((2-(4-chlorophenyl)imidazo[1,2-a]pyridin-3-yl)methyl)-4-(3-hydroxypyrrolidin-1-yl)-1H-pyrrol-2(5H)-one], for which the activation at 0.1 µM in assay [1] is 10 to 50%; in assay [2], not below 50%; in assay [4], -10 to 10%; in assay [5], -10 to 10%. In addition, the “% Inhibition at 1000 nM for CBZD” value in assay [3] is on record as “++ (percentage of inhibition of central BZD site binding is greater than 80% in the presence of 1000 nM of the compound)”.
